{"source": "patent US20240067685A1", "about": "“HIDDEN ANTIBIOTICS IN THE HUMAN PROTEOME” (priority 2022, published 2024)", "key": {"A. baumannii ATCC 17878": {"tested_on": "A. baumannii ATCC 17878", "assay": "microbe, parasite or virus in culture", "settings": "ATCC 17878", "protocol": "(§1) Antimicrobial activity. The antimicrobial activity of ApoB-derived encrypted peptides was assessed against a panel of skin pathogens, such as S. epidermidis ATCC 35984, S. aureus ATCC 12600, A. baumannii ATCC 17878, K. pneumoniae ATCC 700603, S. aureus MRSA (WK7-2), E. faecalis ATCC 29212 and P. aeruginosa PAO1 by using the broth microdilution method. ^20 Bacteria were grown to mid-logarithmic phase in MHB at 37° C. […] Following incubation over-night, each sample was diluted, plated on TSA, and incubated at 37° C. for 24 h to count the number of colonies. All experiments were performed in three independent replicates."}, "[1]": {"tested_on": "K. pneumoniae ATCC 700603", "assay": "microbe, parasite or virus in culture", "settings": "ATCC 700603", "protocol": "as §1"}, "S. aureus ATCC 12600": {"tested_on": "S. aureus ATCC 12600", "assay": "microbe, parasite or virus in culture", "settings": "ATCC 12600", "protocol": "as §1"}, "[2]": {"tested_on": "S. epidermidis ATCC 35984", "assay": "microbe, parasite or virus in culture", "settings": "ATCC 35984", "protocol": "as §1"}, "E. faecalis ATCC 29212": {"tested_on": "E. faecalis ATCC 29212", "protocol": "as §1"}, "[3]": {"tested_on": "P. aeruginosa wild-type PAO1", "protocol": "as §1"}, "S. aureus MRSA (WKZ-2)": {"tested_on": "S. aureus MRSA (WKZ-2)", "protocol": "as §1"}, "in vitro [4]": {"assay": "in vitro", "assay_type": "cell-based", "settings": "human", "protocol": "Cytokine-mediated immunogenicity is one potential side effect of peptide therapeutics as it can lead to cytotoxic effects and allergic responses. ^21,45 To determine whether the peptides exerted any toxic effects against eukaryotic cells and to verify their biocompatibility towards skin cell cultures, dose-response and time-course 3-(4, 5-dimethylthiazolyl-2)-2,5-diphenyltetrazolium bromide (MTT) and lactate dehydrogenase (LDH) cytotoxicity assays were performed against both human dermal fibroblasts (HDF) and human epidermoid carcinoma cell (A431) lines. Due to their cationic nature, most AMPs preferentially interact with negatively charged membranes, such as those of bacteria. […] To evaluate whether peptides exert cytostatic or cytotoxic effects through membrane damage, LDH release in culture medium was detected as a biomarker of membrane damage. ^50 Thus, human dermal fibroblasts (HDF) and human epidermoid carcinoma cells (A431) were treated with each peptide at a concentration of 10 and 20 μmol L^−1 for 72 h. No significant LDH release was detected, thus indicating no damage to eukaryotic cell membranes caused by exposure to the peptides (FIG. 7C).\nEukaryotic cell culture and cytotoxicity assays. […] Cell viability was expressed as means of the percentage values compared to control untreated cells. […]"}, "[5]": {"tested_on": "Acinetobacter baumannii ATCC 17878", "assay_type": "cell-based", "settings": "ATCC 17878, 16 h", "protocol": "(§2) Antimicrobial activity of peptides upon pre-incubation in 10% serum. The antimicrobial activity of r(P)ApoBS^Pro and (ri)-r(P)ApoBS^Pro was evaluated against four bacterial strains upon pre-incubation in 10% FBS (fetal bovine serum, Microgem Lab, Cat. 51860, Italy). All the peptides were incubated for 1 h or 16 h in serum at 37° C. (water bath) prior to MIC value determination by standard protocols. ^20 Experiments were carried out in triplicate for each peptide."}, "[6]": {"tested_on": "Klebsiella pneumoniae ATCC 700603", "assay_type": "cell-based", "settings": "ATCC 700603, 16 h", "protocol": "as §2"}, "[7]": {"tested_on": "Staphylococcus aureus ATCC 12600", "assay_type": "cell-based", "settings": "ATCC 12600, 16 h", "protocol": "as §2"}, "in vitro [8]": {"assay": "in vitro", "settings": "25% fetal bovine serum", "protocol": "To determine its proteolytic stability, it was assessed whether (ri)-r(P)ApoBS^Pro was less susceptible to serum proteases compared to its parent peptide r(P)ApoBS^Pro.\nStability assay. The resistance to enzymatic degradation assay was performed according to the method described by Powell et al. ^72 Briefly, peptides at 2 mg mL^−1 were exposed to a solution of 25% fetal bovine serum in water. Aliquots were collected after 0.5, 1, 2, and 4 h and 10 μL of trifluoroacetic acid was added to them while the samples were on ice for 10 min. The enzymatic degradation of peptides was followed by reverse-phase high performance liquid chromatography coupled to mass spectrometry (RP-HPLC/ESI-MS). The percentage of remaining peptide was calculated by integrating the area under the curve related to the peptide at time point zero.\nwhere AUCX is the area under the curve of the peak related to the peptide after t h (t=0.5, 1, 2, and 4 h), and AUC0 is the area under the curve of the peak related to the peptide at the beginning of the experiment. Three independent experimental replicates were performed, as previously described. ^73"}}, "note": "No end group written: not given here."}
{"sequence": "PHVALKPGKLKFIIPSPKRPVKLLSG [r(P)ApoBS^Pro]", "values": [{"measurement": "MIC", "setting": "A. baumannii ATCC 17878", "result": 5, "unit": "µM"}, {"measurement": "MIC", "setting": "[1]", "result": 5, "unit": "µM"}, {"measurement": "MIC", "setting": "S. aureus ATCC 12600", "result": 20, "unit": "µM"}, {"measurement": "MIC", "setting": "[2]", "result": 10, "unit": "µM"}, {"measurement": "MIC", "setting": "E. faecalis ATCC 29212", "result": 20, "unit": "µM"}, {"measurement": "MIC", "setting": "[3]", "result": 10, "unit": "µM"}, {"measurement": "MIC", "setting": "S. aureus MRSA (WKZ-2)", "result": 10, "unit": "µM"}, {"measurement": "cytotoxicity at 24 h", "setting": "in vitro [4]", "result": 30, "unit": "%"}, {"measurement": "MIC upon incubation in serum", "setting": "[5]", "result": "> 80", "unit": "µM"}, {"measurement": "MIC upon incubation in serum", "setting": "[6]", "result": "> 80", "unit": "µM"}, {"measurement": "MIC upon incubation in serum", "setting": "[7]", "result": "> 80", "unit": "µM"}, {"measurement": "stability in the presence of serum", "setting": "in vitro [8]", "result": "degraded within minutes"}, {"measurement": "exposure time after which peptide degraded", "setting": "in vitro [8]; RP-HPLC/ESI-MS", "result": 30, "unit": "min"}]}
